Measured values from patent publication US9718799B2, “3-aryl-4H-chromene-4-ones as antineoplastic agents for the treatment of cancer” (The University of Kentucky Research Foundation, priority 2015, dated 2017).

Experiments:
P388 leukemia cells = settings: cited from earlier work
[1] = test system: PC3 prostate cancer cells; assay: Cell proliferation assay in prostate cancer PC3 cells; type: cell-based; settings: Homo sapiens, PC-3
Experimental: Cell Proliferation Assay:
PC3 prostate cancer cells were cultured in DMEM/F-12 HAM Mixture (Sigma D8437), 10% Fetal Bovine Serum (Atlanta Biological S11150). Before the treatment, 3.5×10^4 cells per well were split into 12-well plates. After 24 h, 10 μM of each compound was added to each well. DMSO was used as a control. This experiment was done in triplicate. Cell viability and number were analyzed using Vi-Cell XR Cell Viability Analyzer (Beckman Coulter).

[2] = test system: PC3 prostate cancer cells; assay: as above; type: cell-based
[3] = test system: different cancer cell lines; settings: cited from earlier work

For `COCc1c(OC)cc(O)c2c(=O)cc(C)oc12` [8-(methoxymethyl)eugenin], the cytotoxicity (P388 leukemia cells) is given as “moderate cytotoxicity”.

For `COc1ccc(-c2coc3c(COC(C)=O)c(OC(C)=O)ccc3c2=O)cc1` [Isoflavonoid 7d, 7-(Acetoxy)-8-(acetoxymethyl)-3-(4-methoxyphenyl)-4H-chromen-4-one], the inhibition at 10 µM [1] was 99.2 ± 0.4% and the “potency at 1 µM concentration” value ([2]; 1 µM concentration) was “retained potency”.

For `COCc1c(OC)cc(O)c2c(=O)c(-c3ccc(OC)cc3)coc12` [Isoflavonoid 11b, 5-Hydroxy-7-methoxy-8-(methoxymethyl)-3-(4-methoxyphenyl)-4H-chromen-4-one], the melting point was 126 to 128 °C and the inhibition at 10 µM [1] was 96.8 ± 0.8%.

In the case of `COCc1c(O)ccc2c(=O)c(-c3ccccc3OC)coc12` [Isoflavonoid 11c, 7-Hydroxy-8-(methoxymethyl)-3-(2-methoxyphenyl)-4H-chromen-4-one], the melting point is reported as 164 to 166 °C and the inhibition at 10 µM [1] is reported as 0%.

For `COCc1c(O)ccc2c(=O)c(-c3ccc(OC)cc3)coc12` [Isoflavonoid 11d, 7-Hydroxy-8-(methoxymethyl)-3-(4-methoxyphenyl)-4H-chromen-4-one], the melting point was 167 to 169 °C (dec.) and the inhibition at 10 µM [1] was 34.9 ± 3.3%.

Compound `COc1ccc(-c2coc3c4c(ccc3c2=O)OC2OCCC2C4)cc1` (centres unmarked) [Isoflavonoid 20a, 3-(4-Methoxyphenyl)-9,10,10a,11-tetrahydro-4H,7aH-furo[2,3-b]pyrano[2,3-f]chromen-4-one] has a melting point of 201 to 202 °C and an inhibition at 10 µM [1] of 62 ± 7%.

Compound `O=c1c(-c2ccc3c(c2)OCO3)coc2c3c(ccc12)OC1OCCC1C3` (centres unmarked) [Isoflavonoid 20c, 3-(1,3-Benzodioxol-5-yl)-9,10,10a,11-tetrahydro-4H,7aH-furo[2,3-b]pyrano[2,3-f]chromen-4-one] has a melting point of 203 to 205 °C and an inhibition at 10 µM [1] of 47 ± 4%.

Work on `O=c1c(-c2ccc(Cl)cc2)coc2c3c(ccc12)OC1OCCC1C3` (centres unmarked) [Isoflavonoid 20e, 3-(4-Chlorophenyl)-9,10,10a,11-tetrahydro-4H,7aH-furo[2,3-b]pyrano[2,3-f]chromen-4-one] yielded a melting point of 194 to 195 °C and an inhibition at 10 µM [1] of 63 ± 10%.

Compound `COc1ccc(-c2coc3c4c(ccc3c2=O)OC2OCCCC2C4)cc1` (centres unmarked) [Isoflavonoid 21a, 3-(4-Methoxyphenyl)-10,11,11a,12-tetrahydro-4H,7aH,9H-dipyrano[2,3-b:2′,3′-f]chromen-4-one] has a melting point of 182 to 183 °C and an inhibition at 10 µM [1] of 73 ± 6%.

In the case of `COc1ccc(-c2coc3c4c(ccc3c2=O)OC2OCCCC2C4)cc1OC` (centres unmarked) [Isoflavonoid 21b, 3-(3,4-Dimethoxyphenyl)-10,11,11a,12-tetrahydro-4H,7aH,9H-dipyrano[2,3-b:2′,3′-f]chromen-4-one], the melting point is reported as 177 to 178 °C and the inhibition at 10 µM [1] is reported as 35 ± 10%.

For `O=c1c(-c2ccc3c(c2)OCO3)coc2c3c(ccc12)OC1OCCCC1C3` (centres unmarked) [Isoflavonoid 21c, 3-(1,3-Benzodioxol-5-yl)-10,11,11a,12-tetrahydro-4H,7aH,9H-dipyrano[2,3-b:2′,3′-f]chromen-4-one], the melting point was 179 to 181 °C and the inhibition at 10 µM [1] was 68%.

In the case of `O=c1c(-c2ccc3c(c2)OCCO3)coc2c3c(ccc12)OC1OCCCC1C3` (centres unmarked) [Isoflavonoid 21d, 3-(2,3-Dihydro-1,4-benzodioxin-6-yl)-10,11,11a,12-tetrahydro-4H,7aH,9H-dipyrano[2,3-b:2′,3′-f]chromen-4-one], the melting point is reported as 160 to 162 °C and the inhibition at 10 µM [1] is reported as 48 ± 3%.

Compound `O=c1c(-c2ccc(Cl)cc2)coc2c3c(ccc12)OC1OCCCC1C3` (centres unmarked) [Isoflavonoid 21e, 3-(4-Chlorophenyl)-10,11,11a,12-tetrahydro-4H,7aH,9H-dipyrano[2,3-b:2′,3′-f]chromen-4-one] has a melting point of 195 to 197 °C and an inhibition at 10 µM [1] of 44 ± 4%.

`COc1ccc(-c2c(C)oc3c4c(ccc3c2=O)OC2OCCCC2C4)cc1` (centres unmarked) [Isoflavonoid 21g, 3-(4-Methoxyphenyl)-2-methyl-10,11,11a,12-tetrahydro-4H,7aH,9H-dipyrano[2,3-b:2′,3′-f]chromen-4-one] showed a melting point of 199 to 200 °C and an inhibition at 10 µM [1] of 62%.

With `COc1ccc(-c2c(C)oc3c4c(ccc3c2=O)OC2OCCCC2C4)cc1OC` (centres unmarked) [Isoflavonoid 21h, 3-(3,4-Dimethoxyphenyl)-2-methyl-10,11,11a,12-tetrahydro-4H,7aH,9H-dipyrano[2,3-b:2′,3′-f]chromen-4-one] the melting point was 209 to 210 °C and the inhibition at 10 µM [1] was 44 ± 3%.

Work on `Cc1oc2c3c(ccc2c(=O)c1-c1ccc(Cl)cc1)OC1OCCCC1C3` (centres unmarked) [Isoflavonoid 21i, 3-(4-Chlorophenyl)-2-methyl-10,11,11a,12-tetrahydro-4H,7aH,9H-dipyrano[2,3-b:2′,3′-f]chromen-4-one] yielded a melting point of 205 to 206 °C and an inhibition at 10 µM [1] of 74 ± 3%.

Work on `COc1ccc(-c2coc3c4c(ccc3c2=O)OC2=C(C4)C(=O)CC(C)(C)C2)cc1OC` [Isoflavonoid 22b, 3-(3,4-Dimethoxyphenyl)-9,9-dimethyl-8,9,10,12-tetrahydro-4H,11H-pyrano[2,3-a]xanthene-4,11-dione] yielded a melting point of 196 to 198 °C, an inhibition at 10 µM [1] of 86 ± 1% and an inhibition at 10 µM ([1]; PC3 cells, 10 μM) of 86%. The inhibition at 1 µM ([2]; Homo sapiens, PC-3, 1 μM) was 31%.

`COc1ccc(-c2coc3c4c(ccc3c2=O)OC2(O)CCCCC2C4)cc1` (centres unmarked) [Isoflavonoid 24a, 7a-Hydroxy-3-(4-methoxyphenyl)-8,9,10,11,11a,12-hexahydro-4H,7aH-pyrano[2,3-a]xanthen-4-one] showed a melting point of 222 to 223 °C and an inhibition at 10 µM [1] of 30 ± 15%.

`COc1ccc(-c2coc3c4c(ccc3c2=O)OC2(O)CCCCC2C4)cc1OC` (centres unmarked) [Isoflavonoid 24b, 3-(3,4-Dimethoxyphenyl)-7a-hydroxy-8,9,10,11,11a,12-hexahydro-4H,7aH-pyrano[2,3-a]xanthen-4-one] gave a melting point of 214 to 216 °C and an inhibition at 10 µM [1] of 56 ± 5%.

In the case of `COc1ccc(-c2c(C)oc3c4c(ccc3c2=O)OC2(O)CCCCC2C4)cc1` (centres unmarked) [Isoflavonoid 24g, 7a-Hydroxy-3-(4-methoxyphenyl)-2-methyl-8,9,10,11,11a,12-hexahydro-4H,7aH-pyrano[2,3-a]xanthen-4-one], the melting point is reported as 212 to 213 °C and the inhibition at 10 µM [1] is reported as 78 ± 1%.

`COc1ccc(-c2coc3c(C)c4c(cc3c2=O)CC2CCOC2O4)cc1` (centres unmarked) [Isoflavonoid 25a, 3-(4-Methoxyphenyl)-11-methyl-6a,7,8,9a-tetrahydro-4H,6H-furo[2,3-b]pyrano[3,2-g]chromen-4-one] gave a melting point of 155 to 157 °C and an inhibition at 10 µM [1] of 78 ± 3%.

For `O=c1c(-c2ccc(O)cc2)coc2cc(O)cc(O)c12` [genistein (B), genistein], the IC50 [3] is given as 15 to 100 µM.
